Source: patent publication US5801035A, “L-amino acid oxidase” (Novo Nordisk A/S, priority 1993, dated 1998)

System: L-amino acid oxidase
Experiment: Substrate specificity: specific activity and Km (Lineweaver-Burk) with various L-amino acids, H2O2 detected with ABTS and CiP
Type: biochemical, Trichoderma harzianum
Settings: phosphate buffer pH 8.5, room temperature; for Km: Lineweaver-Burk plots; for Specific Activity: 20 minutes
Procedure: The specific activity of the purified L-amino acid oxidase was 16 U/mg determined in a 50 mM phosphate buffer at pH 8.5, 20° C. with 1 mM L-arginine as substrate. One unit of enzyme will form 1 μmole of hydrogen peroxide per minute. The amount of protein is quantified assuming that a solution of the L-amino acid oxidase having an optical density of 1 determined at 280 nm contains 1 mg of protein/ml. The L-amino acid oxidase yield was approx. 50 mg of pure protein per litre of culture medium.
In the following characterization experiments, detection of H2 O2 was carried out using a Coprinus cinereus peroxidase (CiP), obtained according to WO 92/16634, at a level of 4.5 PODU/ml, and 0.4 mM ABTS in phosphate buffer at pH 7.0. The hydrogen peroxide concentrations were determined relative to a freshly prepared hydrogen peroxide standard solution.
The activity of the L-amino acid oxidase was determined with various L-amino acids as substrates. The L-amino acid oxidase was incubated with substrate in a phosphate buffer at pH 8.5 and room temperature for 20 minutes. Generated hydrogen peroxide was detected using ABTS and CiP as described above. The specific activity was determined as described in Example 2 above.
Km values for the various substrates were determined by plotting values of 1/v versus 1/s (Lineweaver-Burk plots).

SMILES | Km | Specific Activity (Substrate Conc. 80 (m/M)) | Specific Activity (Substrate Conc. 1 (m/M)) | Specific Activity (Substrate Conc. 10 (m/M))
N[C@@H](Cc1ccccc1)C(=O)O [L-phenylalanine] | 25 mM | 25 U/mg |  | 
NCCCC[C@H](N)C(=O)O [L-lysine] | 0.2 mM |  | 7 U/mg | 
CSCC[C@H](N)C(=O)O [L-methionine] | 15 mM | 8 U/mg |  | 
N=C(N)NCCC[C@H](N)C(=O)O [L-arginine] | 1.2 mM |  | 16 U/mg | 30 U/mg
CC(C)C[C@H](N)C(=O)O [L-leucine] | 40 mM | 16 U/mg |  | 
NC(=O)C[C@H](N)C(=O)O [L-asparagine] | 20 mM | 7 U/mg |  | 
